From US5648458A, “Peptides and compounds that bind to ELAM-1” (Affymax Technologies N.V., priority 1995, dated 1997)
Ends that are not written are not given here.

Target: T1, immobilized ELAM-1 (Homo sapiens, UniProt P16581)
T1 construct: truncated form comprising the complete extracellular domain (amino acids 1 through 554); made in house
T1 sequence (P16581 22-554): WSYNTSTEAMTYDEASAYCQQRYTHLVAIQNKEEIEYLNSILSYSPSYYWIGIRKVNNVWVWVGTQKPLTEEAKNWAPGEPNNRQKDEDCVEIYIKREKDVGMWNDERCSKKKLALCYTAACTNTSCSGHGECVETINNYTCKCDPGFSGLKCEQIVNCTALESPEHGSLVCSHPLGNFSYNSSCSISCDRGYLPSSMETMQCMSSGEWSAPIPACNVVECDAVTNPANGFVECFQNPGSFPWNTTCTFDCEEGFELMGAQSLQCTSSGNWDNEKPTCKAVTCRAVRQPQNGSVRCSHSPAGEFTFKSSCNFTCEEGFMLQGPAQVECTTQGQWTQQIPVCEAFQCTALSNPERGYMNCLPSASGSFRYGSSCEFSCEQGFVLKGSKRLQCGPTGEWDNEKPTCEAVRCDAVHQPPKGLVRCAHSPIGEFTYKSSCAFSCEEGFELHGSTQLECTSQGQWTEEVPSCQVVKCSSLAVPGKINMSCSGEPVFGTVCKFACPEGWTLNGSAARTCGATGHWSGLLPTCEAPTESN
Format: cell-based
Details: 200000.0
Description: The assay requires HL60 cells labeled with tritiated thymidine. […] The cells are then placed in a T75 flask and incubated at 37° C. for 24 hours. The cells are then collected by centrifugation, washed twice with RPMI/HEPES/0.1% FCS, and resuspended in the same solution at a concentration of about one to two million cells per mL. About 100 μL of this cell preparation are used per well of a 96-well microtiter dish in the assay. The wells of the microtiter dish were first coated with the anti-receptor immobilizing antibody, an anti-HPAP-tail antibody, using about 2.5 μg of antibody per well. […] Then, the wells were washed three times with RPMI 1640 plus 0.1% FCS using a multichannel pipettor.

- blocking of HL60 cell binding, relative to binding in the absence of added compound: over 80%
Sequence: HITWDQLWNVMN
